Conditions: 323.15 K, Liquid, Vibrating tube method

CCCCCCCC(=O)OCC(COC(=O)CCCCCCC)(COC(=O)CCCCCCC)COC(=O)CCCCCCC [pentaerythritol tetraoctanoate]
Conditions | mass density [kg/m3]
21324 kPa | 954.4
21358 kPa | 954.4
21391 kPa | 954.4
21431 kPa | 954.4
21466 kPa | 954.4
21500 kPa | 954.5
21542 kPa | 954.5
21576 kPa | 954.5
21604 kPa | 954.5
21646 kPa | 954.4
21680 kPa | 954.7
21722 kPa | 954.6
21756 kPa | 954.6
21798 kPa | 954.5
21832 kPa | 954.6
21946 kPa | 954.8
21982 kPa | 954.6
22025 kPa | 954.7
22061 kPa | 954.8
22097 kPa | 954.7
22134 kPa | 954.9
22178 kPa | 954.9
22215 kPa | 954.9
22259 kPa | 954.9
22295 kPa | 955
22325 kPa | 954.9
22369 kPa | 954.9
22414 kPa | 955
22451 kPa | 955.1
22490 kPa | 955.1
22537 kPa | 955.1
22576 kPa | 955
22616 kPa | 955.2
22664 kPa | 955.1
22705 kPa | 955.3
22743 kPa | 955.2
22780 kPa | 955.2
22834 kPa | 955.5
22861 kPa | 955.3
22894 kPa | 955.3
22922 kPa | 955.3
22950 kPa | 955.3
22983 kPa | 955.3
23011 kPa | 955.4
23038 kPa | 955.4
23066 kPa | 955.4
23100 kPa | 955.3
23127 kPa | 955.5
23161 kPa | 955.5
23189 kPa | 955.5
23217 kPa | 955.6
23250 kPa | 955.5
23279 kPa | 955.6
23308 kPa | 955.5
23344 kPa | 955.5
23372 kPa | 955.7
23400 kPa | 955.5
23429 kPa | 955.7
23464 kPa | 955.7
23492 kPa | 955.6
23521 kPa | 955.6
23556 kPa | 955.6
23585 kPa | 955.8
23614 kPa | 955.8
23649 kPa | 955.8
23679 kPa | 955.8
23709 kPa | 955.9
23740 kPa | 955.8
23769 kPa | 955.8
23804 kPa | 955.8
23834 kPa | 955.8
23869 kPa | 955.8
23899 kPa | 955.9
23929 kPa | 955.9
23965 kPa | 955.9
23995 kPa | 955.9
24025 kPa | 955.9
24062 kPa | 956
24092 kPa | 955.9
24124 kPa | 955.9
24161 kPa | 956
24191 kPa | 956.2
24223 kPa | 956.1
24260 kPa | 956.1
24291 kPa | 956
24322 kPa | 956.2
24354 kPa | 956.1
24391 kPa | 956.2
24422 kPa | 956.1
24460 kPa | 956.2
24491 kPa | 956.3
24523 kPa | 956.3
24562 kPa | 956.3
24594 kPa | 956.3
24626 kPa | 956.3
24658 kPa | 956.4
24696 kPa | 956.4
24728 kPa | 956.4
24766 kPa | 956.4
24799 kPa | 956.4
24832 kPa | 956.5
24871 kPa | 956.5
24903 kPa | 956.5
24936 kPa | 956.6
24976 kPa | 956.5
25008 kPa | 956.6
25042 kPa | 956.6
25075 kPa | 956.5
25115 kPa | 956.5
25149 kPa | 956.7
25188 kPa | 956.6
25222 kPa | 956.6
25256 kPa | 956.7
25290 kPa | 956.7
25330 kPa | 956.6
25364 kPa | 956.7
25398 kPa | 956.8
25439 kPa | 956.8
25474 kPa | 956.8
25509 kPa | 956.8
25550 kPa | 956.8
25584 kPa | 957
25619 kPa | 956.9
25654 kPa | 957
25695 kPa | 957
25729 kPa | 956.9
25771 kPa | 957
25806 kPa | 957.1
25842 kPa | 957.1
25878 kPa | 957.1
25920 kPa | 957.1
25957 kPa | 957
25993 kPa | 957.2
26028 kPa | 957.1
26071 kPa | 957.1
26107 kPa | 957.1
26150 kPa | 957.2
26186 kPa | 957.2
26223 kPa | 957.3
26259 kPa | 957.3
26303 kPa | 957.3
26340 kPa | 957.2
26384 kPa | 957.3
26421 kPa | 957.5
26460 kPa | 957.3
26498 kPa | 957.4
26535 kPa | 957.4
26579 kPa | 957.5

— the NIST ThermoML archive (doi:10.1021/je060271a)
